Measurements: patent US20190374627A1, “TARGET PEPTIDES FOR CANCER THERAPY AND DIAGNOSTICS” (priority 2016, published 2019)
“Also recorded” adds a separate entry of the source. Square brackets hold non-standard residues; d marks the D form. Ends that are not written are not given here. pS = N[C@@H](COP(=O)(O)O)C(=O)O

Key:
CD8^+ T cells (PBMCs) [1] = assay: Ex vivo ICS of PBMCs after stimulation for 4 hours with the peptide; type: cell-based, human; settings: PBMCs of a patient with hereditary hemochromatosis, 4 hours stimulation
[2] = system: unexpanded lymphocyte cultures (CD8^+ T cells); assay: ICS for MHC-I-pP reactivity of lymphocyte cultures without expansion (Table 23, No Expansion)
CD8^+ T cells (PBMCs) [3] = assay: Intracellular cytokine staining (ICS) of PBMCs after 7 days of stimulation with MHC-I-pP (healthy donors, HH patients); type: cell-based, human; settings: for Reactive CD8^+ T cell population, HH2: HH patient HH2; for Reactive CD8^+ T cell population, HH3: HH patient HH3; for Reactive CD8^+ T cell population, HH6: HH patient HH6; for Reactive CD8^+ T cell population, HH8: HH patient HH8; for Reactive CD8^+ T cell population, HH11: HH patient HH11; for Reactive CD8^+ T cell population, HD1: Healthy donor HD1; for Reactive CD8^+ T cell population, HD4: Healthy donor HD4; for Reactive CD8^+ T cell population, HD5: Healthy donor HD5
Method in brief: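 PBMCs or liver lymphocytes from HLA-A*0201-positive healthy donors and hereditary hemochromatosis patients were stimulated for 7 days with HLA-A*0201-restricted phosphopeptides and no added cytokines. After exclusion of doublets and dead cells with a fixable viability dye, CD3^+CD8^+ cells were analysed by intracellular staining for IFN-γ and TNF-α, plus CD107a where needed.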

[4] = system: expanded TIL / IHL cultures; assay: ICS for MHC-I-pP reactivity of liver-derived lymphocyte cultures after unspecific rapid expansion protocol (REP); type: cell-based, human
[5] = system: expanded lymphocyte cultures from deceased donor livers, cirrhotic livers and HCC; assay: ICS for MHC-I-pP reactivity of liver-derived lymphocyte cultures after phosphopeptide-specific expansion; type: cell-based, human; settings: for ppCTL response, Deceased Donor Liver Do 2 / ppCTL response, Deceased Donor Liver Do 3 / ppCTL response, Deceased Donor Liver Do 4 / ppCTL response, Deceased Donor Liver Do 6 / ppCTL response, End-stage Liver Cirrhosis IHL 11 / ppCTL response, End-stage Liver Cirrhosis IHL 12 / ppCTL response, End-stage Liver Cirrhosis IHL 13 / ppCTL response, End-stage Liver Cirrhosis IHL 15 / ppCTL response, HCC Distal HCC 1 / ppCTL response, HCC Tumor HCC 1 / ppCTL response, HCC Distal HCC 4 / ppCTL response, HCC Distal HCC 9 / ppCTL response, HCC Tumor HCC 9 / ppCTL response, HCC Distal HCC 12: pP-specifically expanded culture; for ppCTL response, HCC Distal HCC 1: HCC 1 Distal; for ppCTL response, HCC Tumor HCC 1: HCC 1 Tumor; for ppCTL response, HCC Distal HCC 4: HCC 4 Distal; for ppCTL response, HCC Distal HCC 9: HCC 9 Distal; for ppCTL response, HCC Tumor HCC 9: HCC 9 Tumor; for ppCTL response, HCC Distal HCC 12: HCC 12 Distal

Row | Substance | Reactive CD8^+ T cells, No Expansion, HH6 [2] | Reactive CD8^+ T cell population, HH2 (CD8^+ T cells (PBMCs) [3]) | Reactive CD8^+ T cell population, HH3 (CD8^+ T cells (PBMCs) [3]) | Reactive CD8^+ T cell population, HH6 (CD8^+ T cells (PBMCs) [3]) | Reactive CD8^+ T cell population, HH8 (CD8^+ T cells (PBMCs) [3]) | Reactive CD8^+ T cell population, HD1 (CD8^+ T cells (PBMCs) [3]) | Reactive CD8^+ T cell population, HD4 (CD8^+ T cells (PBMCs) [3]) | Reactive CD8^+ T cell population, HD5 (CD8^+ T cells (PBMCs) [3]) | Reactive CD8^+ T cells, Non-specific Expansion, Do2 [4] | Reactive CD8^+ T cells, Non-specific Expansion, Do4 [4] | Reactive CD8^+ T cells, Non-specific Expansion, HH6 [4] | Reactive CD8^+ T cells, pP-specific Expansion, Do2 [5] | Reactive CD8^+ T cells, pP-specific Expansion, Do4 [5] | Reactive CD8^+ T cells, pP-specific Expansion, HH6 [5] | ppCTL response, Deceased Donor Liver Do 2 [5] | ppCTL response, Deceased Donor Liver Do 3 [5] | ppCTL response, Deceased Donor Liver Do 4 [5] | ppCTL response, Deceased Donor Liver Do 6 [5] | ppCTL response, End-stage Liver Cirrhosis IHL 11 [5] | ppCTL response, End-stage Liver Cirrhosis IHL 12 [5] | further results
1 | RVAsPTSGV: IRS2 phosphopeptide, HLA-A*0201 (RVA[pS]PTSGV; listed as Homo sapiens) | 0 (<0.25% reactive CD8^-+ T cells) | 0 (<0.25% reactive CD8^-+ T cells) | 0 (<0.25% reactive CD8^-+ T cells) | 0 (<0.25% reactive CD8^-+ T cells) | 0 (<0.25% reactive CD8^-+ T cells) | 0 (<0.25% reactive CD8^-+ T cells) | 0 (<0.25% reactive CD8^-+ T cells) | 0 (<0.25% reactive CD8^-+ T cells) | 0 (<0.25% reactive CD8^-+ T cells) | 0 (<0.25% reactive CD8^-+ T cells) | 0 (<0.25% reactive CD8^-+ T cells) | 0 (<0.25% reactive CD8^-+ T cells) | 2 (2.5-5.0% reactive CD8^-+ T cells) | 0 (<0.25% reactive CD8^-+ T cells) | 0 (<0.25% reactive CD8-+ T cells) | 0 (<0.25% reactive CD8-+ T cells) | 2 (2.5-5.0% reactive CD8-+ T cells) | 1 (0.25-2.5% reactive CD8-+ T cells) | 0 (<0.25% reactive CD8-+ T cells) | 0 (<0.25% reactive CD8-+ T cells) | ex vivo CD8^+ T cell response (CD8^+ T cells (PBMCs) [1]): evident ex vivo; also recorded: ex vivo CD8^+ T cell response; Reactive CD8^+ T cells, No Expansion, Do4 ([2]; Do4): 3 (5-7.5% reactive CD8^-+ T cells); Reactive CD8^+ T cell population, HH10 (CD8^+ T cells (PBMCs) [3]; HH patient HH10): 2 (2.5-5.0% reactive CD8^-+ T cells); Reactive CD8^+ T cell population, HH11 (CD8^+ T cells (PBMCs) [3]): 0 (<0.25% reactive CD8^-+ T cells); Reactive CD8^+ T cell population, HD2 (CD8^+ T cells (PBMCs) [3]; Healthy donor HD2): 0 (<0.25% reactive CD8^-+ T cells); Reactive CD8^+ T cell population, HD3 (CD8^+ T cells (PBMCs) [3]; Healthy donor HD3): 0 (<0.25% reactive CD8^-+ T cells); ppCTL response, End-stage Liver Cirrhosis IHL 13 [5]: 0 (<0.25% reactive CD8-+ T cells); ppCTL response, End-stage Liver Cirrhosis IHL 15 [5]: 0 (<0.25% reactive CD8-+ T cells); ppCTL response, HCC Distal HCC 1 [5]: 0 (<0.25% reactive CD8-+ T cells); ppCTL response, HCC Tumor HCC 1 [5]: 0 (<0.25% reactive CD8-+ T cells); ppCTL response, HCC Distal HCC 4 [5]: 0 (<0.25% reactive CD8-+ T cells); ppCTL response, HCC Distal HCC 9 [5]: 0 (<0.25% reactive CD8-+ T cells); ppCTL response, HCC Tumor HCC 9 [5]: 0 (<0.25% reactive CD8-+ T cells); ppCTL response, HCC Distal HCC 12 [5]: 0 (<0.25% reactive CD8-+ T cells)
2 | RTFsPTYGL: SYNM phosphopeptide, HLA-A*0201 (RTF[pS]PTYGL; listed as Homo sapiens) | 1 (0.25-2.5% reactive CD8^-+ T cells) | 0 (<0.25% reactive CD8^-+ T cells) | 0 (<0.25% reactive CD8^-+ T cells) | 0 (<0.25% reactive CD8^-+ T cells) | 0 (<0.25% reactive CD8^-+ T cells) | 0 (<0.25% reactive CD8^-+ T cells) | 0 (<0.25% reactive CD8^-+ T cells) | 0 (<0.25% reactive CD8^-+ T cells) | 0 (<0.25% reactive CD8^-+ T cells) | 0 (<0.25% reactive CD8^-+ T cells) | 0 (<0.25% reactive CD8^-+ T cells) | 0 (<0.25% reactive CD8^-+ T cells) | 0 (<0.25% reactive CD8^-+ T cells) | 3 (5-7.5% reactive CD8^-+ T cells) | 0 (<0.25% reactive CD8-+ T cells) | 0 (<0.25% reactive CD8-+ T cells) | 0 (<0.25% reactive CD8-+ T cells) | 0 (<0.25% reactive CD8-+ T cells) | 0 (<0.25% reactive CD8-+ T cells) | 0 (<0.25% reactive CD8-+ T cells) | Reactive CD8^+ T cell population, HH11 (CD8^+ T cells (PBMCs) [3]): 0 (<0.25% reactive CD8^-+ T cells); ppCTL response, End-stage Liver Cirrhosis IHL 13 [5]: 0 (<0.25% reactive CD8-+ T cells); ppCTL response, End-stage Liver Cirrhosis IHL 15 [5]: 1 (0.25-2.5% reactive CD8-+ T cells); ppCTL response, HCC Distal HCC 1 [5]: 0 (<0.25% reactive CD8-+ T cells); ppCTL response, HCC Tumor HCC 1 [5]: 0 (<0.25% reactive CD8-+ T cells); ppCTL response, HCC Distal HCC 4 [5]: 0 (<0.25% reactive CD8-+ T cells); ppCTL response, HCC Distal HCC 9 [5]: 0 (<0.25% reactive CD8-+ T cells); ppCTL response, HCC Tumor HCC 9 [5]: 0 (<0.25% reactive CD8-+ T cells); ppCTL response, HCC Distal HCC 12 [5]: 0 (<0.25% reactive CD8-+ T cells)
3 | AVVsPPALHNA: BRD4 phosphopeptide, HLA-A*0201 (AVV[pS]PPALHNA; listed as Homo sapiens) | 2 (2.5-5.0% reactive CD8^-+ T cells) | 0 (<0.25% reactive CD8^-+ T cells) | 0 (<0.25% reactive CD8^-+ T cells) | 2 (2.5-5.0% reactive CD8^-+ T cells) | 0 (<0.25% reactive CD8^-+ T cells) | 0 (<0.25% reactive CD8^-+ T cells) | 0 (<0.25% reactive CD8^-+ T cells) | 0 (<0.25% reactive CD8^-+ T cells) | 0 (<0.25% reactive CD8^-+ T cells) | 0 (<0.25% reactive CD8^-+ T cells) | 0 (<0.25% reactive CD8^-+ T cells) | 0 (<0.25% reactive CD8^-+ T cells) | 0 (<0.25% reactive CD8^-+ T cells) | 2 (2.5-5.0% reactive CD8^-+ T cells) | 0 (<0.25% reactive CD8-+ T cells) | 0 (<0.25% reactive CD8-+ T cells) | 0 (<0.25% reactive CD8-+ T cells) | 0 (<0.25% reactive CD8-+ T cells) | 0 (<0.25% reactive CD8-+ T cells) | 0 (<0.25% reactive CD8-+ T cells) | ppCTL response, End-stage Liver Cirrhosis IHL 13 [5]: 0 (<0.25% reactive CD8-+ T cells); ppCTL response, End-stage Liver Cirrhosis IHL 15 [5]: 0 (<0.25% reactive CD8-+ T cells); ppCTL response, HCC Distal HCC 1 [5]: 0 (<0.25% reactive CD8-+ T cells); ppCTL response, HCC Tumor HCC 1 [5]: 0 (<0.25% reactive CD8-+ T cells); ppCTL response, HCC Distal HCC 4 [5]: 0 (<0.25% reactive CD8-+ T cells); ppCTL response, HCC Distal HCC 9 [5]: 0 (<0.25% reactive CD8-+ T cells); ppCTL response, HCC Tumor HCC 9 [5]: 1 (0.25-2.5% reactive CD8-+ T cells); ppCTL response, HCC Distal HCC 12 [5]: 0 (<0.25% reactive CD8-+ T cells)
